Source: patent US9556143B2, “Metalloenzyme inhibitor compounds” (Viamet Pharmaceuticals, Inc., priority 2011, dated 2017)

Columns and labels:
[1] = test system: Puccinia recondita tritici = Puccinia triticina (PUCCRT); assay: Fungicidal activity vs. wheat leaf rust; type: in vivo, Puccinia recondita tritici on wheat (variety Yuma); details: % disease control @ 50 ppm, wheat seedlings sprayed, inoculated the following day, severity evaluated 7-9 days later, read-out: Puccinia Rating
Excerpt: D. Evaluation of Fungicidal Activity Vs. Leaf Rust (Causal Agent Puccinia recondita tritici=Puccinia triticina; Bayer code PUCCRT). […] Each pot contained 3-8 seedlings. These plants were sprayed until wet with the formulated test compounds. The compounds were formulated at 50 ppm in 10 vol. % acetone plus 90 vol. % Triton X water (deionized water 99.99 wt %+0.01 wt % Triton X100), giving a “formulated test compound.” Formulated test compounds were applied to plants using a turn table sprayer fitted with two opposing air atomization nozzles which delivered approximately 1500 L/ha of spray volume. On the following day, the leaves were inoculated with an aqueous spore suspension of Puccinia recondita tritici and the plants were kept in high humidity overnight to permit spores to germinate and infect the leaf. The plants were then transferred to a greenhouse until disease developed on untreated control plants. Disease severity was evaluated 7-9 days later, depending on the speed of disease development. In each case of Table 3, the Puccinia rating scale is as follows: […]

[2] = test system: Septoria tritici (ATCC 26517); assay: Minimum Inhibitory Concentration (MIC) (Septoria tritici), CLSI-based microdilution; type: cell-based; details: Zymoseptoria tritici, ATCC26517, 168 h, MIC class; 50% reduction in growth of S. tritici; 7 days at 22 °C; read-out: Septoria Rating
Experimental: C. Minimum Inhibitory Concentration (MIC) (Septoria tritici) Compounds of the present disclosure were assessed for their ability to inhibit the growth of a common strain of the fungal plant pathogen Septoria tritici (ATCC 26517) using a procedure based on a Clinical and Laboratory Standards Institute (CLSI) microdilution assay protocol for filamentous fungi. Stock solutions of the test compounds and standards were prepared in DMSO at 6400 μg/mL. Each stock solution was used to prepare a 2-fold dilution series ranging from 16 to 0.016 μg/mL (total of 11 compound concentrations) in RPMI-1640 (Roswell Park Memorial Institute) medium containing 3-(N-morpholino)propanesulfonic acid (MOPS) buffer and 2% DMSO. A 100 μL aliquot of the dilutions was added to columns 1 (16 μg/mL compound) through 11 (0.016 μg/mL compound) of a 96-well microtiter plate. This format was replicated in a second row of the microtiter plate. Thus, each microtiter plate could include 11 concentrations of four test or control compounds replicated twice. A 100 μL aliquot of RPMI-1640/MOPS/2% DMSO medium was added to column 12 (no compound control) of the microtiter plate. A fresh culture of S. tritici was used to prepare a solution of approximately 5×10^4 colony-forming units per milliliter (cfu/mL) in RPMI/MOPS medium without DMSO. A 100 μL aliquot of this solution was added to all 96 wells in the microtiter plate. […]

MIC [2] [µg/mL]	SMILES	pest or weed control at 50 ppm [1] [%]
≤ 0.5	OC(Cn1cnnn1)(c1ccc(F)cc1F)C(F)(F)c1ccc(-c2ccc(Cl)nc2)cn1 (stereo not drawn) [Compound 30, 1-(6′-Chloro-[3,3′-bipyridin]-6-yl)-2-(2,4-difluorophenyl)-1,1-difluoro-3-(1H-tetrazol-1-yl)propan-2-ol]	80 to 100
	N#Cc1cccc(OCc2ccc(C(F)(F)C(O)(Cn3cnnn3)c3ccc(F)cc3F)nc2)c1F (stereo not drawn) [Compound 89, 3-((6-(2-(2,4-difluorophenyl)-1,1-difluoro-2-hydroxy-3-(1H-tetrazol-1-yl)propyl)pyridin-3-yl)methoxy)-2-fluorobenzonitrile]	80 to 100
	N#Cc1ccc(SCc2ccc(C(F)(F)C(O)(Cn3cnnn3)c3ccc(F)cc3F)nc2)c(F)c1 (stereo not drawn) [Compound 90, 4-(((6-(2-(2,4-difluorophenyl)-1,1-difluoro-2-hydroxy-3-(1H-tetrazol-1-yl)propyl)pyridin-3-yl)methyl)thio)-3-fluorobenzonitrile]	40 to 59
	OC(Cn1cnnn1)(c1ccc(F)cc1F)C(F)(F)c1ccc(COC(F)F)cn1 (stereo not drawn) [Compound 92, 1-(5-((difluoromethoxy)methyl)pyridin-2-yl)-2-(2,4-difluorophenyl)-1,1-difluoro-3-(1H-tetrazol-1-yl)propan-2-ol]	80 to 100
	OC(Cn1cnnn1)(c1ccc(F)cc1F)C(F)(F)c1ccc(-c2ccc(Cl)cn2)cn1 (stereo not drawn) [Compound 93, 1-(5-chloro-[2,3′-bipyridin]-6′-yl)-2-(2,4-difluorophenyl)-1,1-difluoro-3-(1H-tetrazol-1-yl)propan-2-ol]	80 to 100
	OC(Cn1cnnn1)(c1ccc(F)cc1F)C(F)(F)c1ccc(-c2ccc(C(F)(F)F)cn2)cn1 (stereo not drawn) [Compound 94, 2-(2,4-difluorophenyl)-1,1-difluoro-3-(1H-tetrazol-1-yl)-1-(5-(trifluoromethyl)-[2,3′-bipyridin]-6′-yl)propan-2-ol]	80 to 100
	N#Cc1ccc(-c2ccc(C(F)(F)C(O)(Cn3cnnn3)c3ccc(F)cc3F)nc2)nc1 (stereo not drawn) [Compound 95, 6′-(2-(2,4-difluorophenyl)-1,1-difluoro-2-hydroxy-3-(1H-tetrazol-1-yl)propyl)-[2,3′-bipyridin]-5-carbonitrile]	80 to 100
	OC(Cn1cnnn1)(c1ccc(F)cc1F)C(F)(F)c1ccc(-c2ccncc2)cn1 (stereo not drawn) [Compound 96, 1-([3,4′-bipyridin]-6-yl)-2-(2,4-difluorophenyl)-1,1-difluoro-3-(1H-tetrazol-1-yl)propan-2-ol]	60 to 79
	N#Cc1ccc(OCc2ccc(C(F)(F)C(O)(Cn3cnnn3)c3ccc(F)cc3F)nc2)nc1 (stereo not drawn) [Compound 98, 6-((6-(2-(2,4-difluorophenyl)-1,1-difluoro-2-hydroxy-3-(1H-tetrazol-1-yl)propyl)pyridin-3-yl)methoxy)nicotinonitrile]	80 to 100
	OC(Cn1cnnn1)(c1ccc(F)cc1F)C(F)(F)c1ccc(COc2ccc(C(F)(F)F)cn2)cn1 (stereo not drawn) [Compound 99, 2-(2,4-difluorophenyl)-1,1-difluoro-3-(1H-tetrazol-1-yl)-1-(5-(((5-(trifluoromethyl)pyridin-2-yl)oxy)methyl)pyridin-2-yl)propan-2-ol]	80 to 100
	OC(Cn1cnnn1)(c1ccc(F)cc1F)C(F)(F)c1ccc(COc2ncc(C(F)(F)F)cc2Cl)cn1 (stereo not drawn) [Compound 100, 1-(5-(((3-chloro-5-(trifluoromethyl)pyridin-2-yl)oxy)methyl)pyridin-2-yl)-2-(2,4-difluorophenyl)-1,1-difluoro-3-(1H-tetrazol-1-yl)propan-2-ol]	80 to 100
	OC(Cn1cnnn1)(c1ccc(F)cc1F)C(F)(F)c1ccc(C(F)(F)c2ccc(F)cc2)cn1 (stereo not drawn) [Compound 101, 1-(5-(difluoro(4-fluorophenyl)methyl)pyridin-2-yl)-2-(2,4-difluorophenyl)-1,1-difluoro-3-(1H-tetrazol-1-yl)propan-2-ol]	80 to 100
	OC(Cn1cnnn1)(c1ccc(F)cc1F)C(F)(F)c1ccc(C(F)(F)c2ccc(C(F)(F)F)cc2)cn1 (stereo not drawn) [Compound 102, 1-(5-(difluoro(4-(trifluoromethyl)phenyl)methyl)pyridin-2-yl)-2-(2,4-difluorophenyl)-1,1-difluoro-3-(1H-tetrazol-1-yl)propan-2-ol]	80 to 100
	N#Cc1ccc(C(F)(F)c2ccc(C(F)(F)C(O)(Cn3cnnn3)c3ccc(F)cc3F)nc2)cc1 (stereo not drawn) [Compound 103, 4-((6-(2-(2,4-difluorophenyl)-1,1-difluoro-2-hydroxy-3-(1H-tetrazol-1-yl)propyl)pyridin-3-yl)difluoromethyl)benzonitrile]	80 to 100
